{"source": "patent US10906946B2", "about": "“Thrombin inhibitors” (priority 2015, dated 2021)", "key": {"[1]": {"target": "T1, thrombin (Homo sapiens, UniProt P00734)", "T1 construct": "residues in the termini of the light chain; and in the autolysis loop and C-terminus of the heavy chain; purchased Chemo-Sero-Therapeutic Research Institute (Kaketsuken, Japan), as a gift, not bought", "assay": "Cleavage of peptide by thrombin (RP-HPLC, ESI-MS)", "format": "biochemical", "procedure": "A. Evaluation of avathrin cleavage by thrombin by HPLC chromatograms. Avathrin (150 μM) was incubated with thrombin (5 μM) for various times and the reaction mixtures were separated using RP-HPLC; the masses of the cleavage products were analyzed with ESI-MS. At 0 min (upper panel), a single peak corresponding to full length avathrin (mass 3139 Da) was identified. At 120 min (middle panel), two new peaks corresponding to N-terminal cleavage product (^1[…]^10 of SEQ ID NO: 1; mass 982 Da) and C-terminal cleavage product ([…] (SEQ ID NO: 4); mass 2176 Da) were identified in addition to avathrin peak. At 600 min (lower panel), two peaks corresponding to the N- and C-terminal cleaved products were observed while avathrin peak was not observed, indicating complete cleavage. B. Time-dependent cleavage of avathrin by thrombin. Relative percentages of avathrin, its N- and C-terminal cleavage products were quantified by calculating areas under the curve. Each data point is the mean±S.D. of at least three independent experiments. C. Effect of thrombin cleavage on inhibitory properties of avathrin. Avathrin was incubated with thrombin (0.81 nM) for up to 36 h, and assayed at different time points for its ability to inhibit thrombin amidolytic activity on the chromogenic substrate S2238. […]\nThrombin amidolytic activity assays for all peptides were performed in 96-wells microtiter plates in 50 mM Tris buffer (pH 7.4) containing 100 mM NaCl and 1 mg/ml bovine serum albumin. […] The rates of formation of p-nitroaniline were followed by measuring the absorbance at 405 nm for 10 min with a Tecan InfinitePro M200 microplate reader from Tecan (Männedorf, Switzerland). […] To measure the inhibitory constants, different concentrations of S2238 were used and the residual velocities were determined using the Morrison's tight binding equation. Inhibition of thrombin fibrinogenolytic activity of peptides were tested by measuring absorbance at 650 nm using a Sunrise microplate reader from Tecan (Männedorf, Switzerland) as described previously [Koh C Y, et al., J Biol Chem 282: 29101-13 (2007)]. […] Effects of avathrin on the amidolytic activities of these serine proteases were determined using respective chromogenic substrates. […] After different incubation times, reactions were quenched with 1% TFA (pH 1.8) and loaded onto a Jupiter Proteo column (4 μm, 90 Å, 100×1.0 mm) attached to a Dionex nano-HPLC system from Thermo Fisher Scientific (Waltham, Mass., USA) and eluted using an acetonitrile gradient with 0.05% TFA and 99.95% MilliQ water as eluent A and 0.05% TFA, 19.95% MilliQ water and 80% ACN as eluent B. Masses of all peaks were measured to identify cleavage products, which were subsequently quantified by integrating the peaks and calculating the area under the curves. […]"}, "[2]": {"target": "T2, human α-thrombin (Homo sapiens, UniProt P00734)", "T2 construct": "residues in the termini of the light chain; purchased Chemo-Sero-Therapeutic Research Institute (Kaketsuken, Japan), as a gift, not bought", "assay": "Thrombin amidolytic activity assay with chromogenic substrate S2238", "format": "biochemical", "procedure,_shortened": "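Run in 50 mM Tris pH 7.4, 100 mM NaCl, 1 mg/ml BSA; p-nitroaniline release from S2238 monitored at 405 nm for 10 min. IC50 and Hill coefficients from dose-response fits; inhibition constants from varied S2238 concentrations using Morrison tight-binding equation.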"}, "[3]": {"conditions": "inhibitory constant Ki for thrombin, thrombin 0.81 nM, various S2238 concentrations"}}, "note": "Peptide text beside a SMILES is read from it."}
{"compound": "CC[C@H](C)[C@H](NC(=O)[C@H](CCCCN)NC(=O)[C@@H]1CCCN1C(=O)[C@@H](NC(=O)[C@H](C)NC(=O)[C@@H](NC(=O)[C@H](CCC(N)=O)NC(=O)[C@H](Cc1c[nH]cn1)NC(=O)CNC(=O)CNC(=O)[C@@H](N)CO)[C@@H](C)O)C(C)C)C(=O)N[C@@H](CO)C(=O)N[C@@H](CCCCN)C(=O)N[C@@H](CCC(N)=O)C(=O)NCC(=O)N[C@@H](CC(C)C)C(=O)NCC(=O)NCC(=O)N[C@@H](CC(=O)O)C(=O)N[C@@H](Cc1ccccc1)C(=O)N[C@@H](CCC(=O)O)C(=O)N[C@@H](CCC(=O)O)C(=O)N[C@H](C(=O)N1CCC[C@H]1C(=O)N[C@@H](CO)C(=O)N[C@@H](CC(=O)O)C(=O)N[C@@H](CCC(=O)O)C(=O)N[C@H](C(=O)N[C@H](C(=O)N[C@@H](CCC(=O)O)C(=O)O)[C@@H](C)CC)[C@@H](C)CC)[C@@H](C)CC", "note": "[Avathrin] (H-SGGHQTAVPKISKQGLGGDFEEIPSDEIIE-OH; N-terminus and C-terminus assumed)", "values": [{"measurement": "time at which complete cleavage by thrombin was observed", "setting": "[1]; avathrin 150 μM, thrombin 5 μM", "value": 600, "unit": "min"}, {"measurement": "times higher affinity for thrombin than Bivalirudin", "setting": "[2]", "value": "approximately 5 times"}, {"measurement": "Hill slope of thrombin amidolytic inhibition", "setting": "[2]; 0 min pre-incubation where stated", "value": "0.92±0.01"}, {"measurement": "Hill slope of thrombin amidolytic inhibition, 10 min pre-incubation", "setting": "[2]; 10 min pre-incubation", "value": "0.94±0.02"}, {"measurement": "IC50", "setting": "[2]; IC50(nM), Table 2", "value": "6.95 ± 0.42", "unit": "nM"}, {"measurement": "Hill Slope", "setting": "[2]; Table 2", "value": "0.92 ± 0.02"}, {"measurement": "thrombin amidolytic activity inhibited after prolonged incubation", "setting": "[2]; at 24 h, same avathrin:thrombin ratio as cleavage experiments", "value": "> 45", "unit": "%"}, {"measurement": "Ki", "setting": "[2]; [3]", "value": "0.5453 ± 0.0031", "unit": "nM"}, {"measurement": "inhibition at 0.01 µM", "setting": "[2]; read-out: inhibition of thrombin activity", "value": 65, "unit": "%"}, {"measurement": "inhibition at 0.001 µM", "setting": "[2]; read-out: inhibition of thrombin amidolytic activity at equimolar concentrations", "value": "14.3 ± 1.39", "unit": "%"}]}
{"compound": "CC[C@H](C)[C@H](NC(=O)[C@H](C)NC(=O)[C@H](CC(=O)O)NC(=O)[C@H](CC(=O)O)NC(=O)[C@@H]1CCCN1C(=O)[C@@H](NC(=O)[C@H](CCC(=O)O)NC(=O)[C@H](CCC(=O)O)NC(=O)[C@H](Cc1ccccc1)NC(=O)[C@H](CC(=O)O)NC(=O)CNC(=O)[C@@H]1CCCN1C(=O)[C@@H]1CCCN1C(=O)[C@H](C)NC(=O)[C@@H](NC(=O)[C@H](CO)NC(=O)[C@H](Cc1ccc(O)cc1)NC(=O)[C@H](CCSC)NC(=O)[C@H](CCCCN)NC(=O)[C@@H]1CCCN1C(=O)[C@@H](NC(=O)[C@H](C)NC(=O)[C@H](CCCNC(=N)N)NC(=O)[C@@H](NC(=O)[C@H](C)NC(=O)[C@H](CCC(=O)O)NC(=O)[C@H](CC(=O)O)NC(=O)[C@@H](N)CO)C(C)C)[C@@H](C)CC)[C@@H](C)O)[C@@H](C)CC)C(=O)N[C@@H](CCC(=O)O)C(=O)N[C@@H](CCC(=O)O)C(=O)O", "note": "[Ultravariegin] (H-SDEAVRAIPKMYSTAPPGDFEEIPDDAIEE-OH; N-terminus and C-terminus assumed)", "values": [{"measurement": "time to complete cleavage by thrombin", "setting": "[1]; peptide incubated with thrombin (30:1)", "value": 18, "unit": "h"}, {"measurement": "fold more potent than variegin (Ki)", "setting": "[2]", "value": "more than 70 fold"}, {"measurement": "fold stronger affinity compared to avathrin and variegin", "setting": "[2]", "value": "> 200", "unit": "fold"}, {"measurement": "times higher affinity for thrombin than Bivalirudin", "setting": "[2]", "value": "~650", "unit": "times"}, {"measurement": "Ki", "setting": "[2]; Affinity (nM), Table 4, Ki values", "value": 0.001, "unit": "nM"}, {"measurement": "IC50", "setting": "[2]; IC50 (nM), Table 5", "value": "0.4 ± 0.09", "unit": "nM"}, {"measurement": "IC50", "setting": "[2]; IC50 of inhibition of thrombin amidolytic activity, thrombin 0.81 nM, S2238 100 μM, without pre-incubation (0 min) where stated", "value": "0.26 ± 0.008", "unit": "nM"}, {"measurement": "Ki", "setting": "[2]; Ki (pM), Table 5", "value": "0.0044 ± 0.00035", "unit": "nM"}, {"measurement": "Ki", "setting": "[2]; [3]", "value": 0.0015, "unit": "nM"}]}
